Experimental findings from patent US7820698B2, “Phosphodiesterase-4 inhibitors belonging to the tertiary amine class” (Chiesi Farmaceutici S.p.A., priority 2008, dated 2010) are described below.

The structures appear in SMILES notation.

For one test, the system named is PDE4 enzyme. Kind of test: In vitro determination of PDE4 inhibitory activity in the cell free assay. Format: biochemical, human. Particulars: U937 cell supernatant, 1.6 μM cAMP, 30° C. for 30 minutes, cAMP disappearance. The procedure:
The U937 human monocytic cell line was used as source of PDE4 enzyme. Cells were cultured, harvested and supernatant fraction prepared essentially as described in T. J. Torphy, et al., J. Pharmacol. Exp. Ther., 1992; 263:1195-1205.
PDE4 activity was determined in cells supernatants by assaying cAMP disappearance from the incubation mixtures. 50 μl of cell supernatant were incubated at 30° C. for 30 minutes in a final volume of 200 μl in the presence of 1.6 μM cAMP with or without the test compound (50 μl).
The concentration of the test compounds ranged between 10^−12 M and 10^−6 M.
Reactions were stopped by heat inactivation (2.5 minutes at 100° C.), and residual cAMP was measured using an electrochemiluminescence (ECL)-based immunoassay.
The results are expressed as mean±95% confidence limits of the molar concentration of the test compound producing 50% inhibition of cAMP disappearance (IC50).
Percentage of inhibition of PDE4 activity was calculated, assuming cAMP disappearance in the absence of inhibitors as 100% and cAMP disappearance in heat inactivated samples as 0%.

For test [1], the system named is LPS-induced TNF-α release in peripheral blood mononuclear cells (PBMCs). Kind of test: In vitro determination of PDE4 inhibitory activity in the peripheral blood mononuclear cells (PBMCs) assay. The test is classed as cell-based. Particulars: PBMC; human PBMCs, LPS (3 ng/ml), 18 hours, TNF-α by ELISA. The protocol:
The assay, which is based on the known inhibitory activity exerted by PDE4 inhibitors on the lipopolysaccharides (LPS)-induced tumour necrosis factor-alpha (TNF-α release in peripheral blood mononuclear cells (PBMCs), was performed according to the method described by A. Hatzelmann, et al., J. Pharmacol. Exp. Ther., 2001; 297:267-279 and by R. Draheim, et al., J. Pharmacol. Exp. Ther., 2004; 308:555-563.
Cryopreserved human PBMCs, (100 μl/well) were incubated in 96-well plates (10^5 cells/well), for 30 minutes, in the presence or absence (50 microl) of the test compounds whose concentrations ranged from 10^−12 M to 10^−6 M. Subsequently, LPS (3 ng/ml) was added.
After 18 hours incubation at 37° C. in a humidified incubator under an atmosphere of 95% air and 5% CO2, culture medium was collected and TNF-α measured by ELISA. The results are expressed as mean±95% confidence limits of the molar concentration of the test compound producing 50% inhibition of LPS-induced TNF-α release (IC50).
The effects of the tested compounds were calculated as percent inhibition of TNF-α release, assuming LPS-induced TNF-α production in the absence of inhibitor compound as 100% and basal TNF-α production of PBMCs in the absence of LPS as 0%.
A general note: In an ELISA, binding on a coated surface is turned into a signal by an enzyme label.

As a reminder, the IC50 is the midpoint of a concentration-inhibition curve. A lower IC50 goes with inhibition by little substance. `COc1ccc(N(Cc2ccc(F)cc2)Cc2c(Cl)cncc2Cl)cc1OC` [Compound C1, (3,5-Dichloro-pyridin-4-ylmethyl)-(3,4-dimethoxy-phenyl)-(4-fluoro-benzyl)-amine]: the IC50 in the test on PDE4 enzyme came to 81 nM; in test [1], 661 nM.

For `COc1cccc(CN(Cc2c(Cl)cncc2Cl)c2ccc(OC)c(OC)c2)c1` [Compound C3, (3,5-Dichloro-pyridin-4-ylmethyl)-(3,4-dimethoxy-phenyl)-(3-methoxy-benzyl)-amine], the 50% inhibitory concentration (IC50) was 140 nM in the test with PDE4 enzyme and 184 nM in test [1]. Turning to `COc1ccc(N(Cc2ccc(S(C)(=O)=O)cc2)Cc2c(Cl)cncc2Cl)cc1OC` [Compound C4, (3,5-Dichloro-pyridin-4-ylmethyl)-(3,4-dimethoxy-phenyl)-(4-methanesulfonyl-benzyl)-amine], the half-maximal inhibitory concentration (IC50) in the test on PDE4 enzyme turned out to be 60 nM; in test [1] it was 198 nM. `COc1ccc(N(Cc2ccco2)Cc2c(Cl)cncc2Cl)cc1OC` [Compound C9, (3,5-Dichloro-pyridin-4-ylmethyl)-(3,4-dimethoxy-phenyl)-furan-2-ylmethyl-amine] displayed a 50% inhibitory concentration (IC50) in test [1] of 47.8 nM. As to `COc1ccc(N(Cc2ccc(S(N)(=O)=O)cc2)Cc2c(Cl)cncc2Cl)cc1OC` [Compound C10, 4-{[(3,5-Dichloro-pyridin-4-ylmethyl)-(3,4-dimethoxy-phenyl)-amino]-methyl}-benzenesulfonamide], the IC50 (in the test with PDE4 enzyme; in test [1]) was 38 nM in each case. As for `COc1ccc(CN(Cc2c(Cl)cncc2Cl)c2ccc(OC)c(OC)c2)cc1` [Compound C13, (3,5-Dichloro-pyridin-4-ylmethyl)-(3,4-dimethoxy-phenyl)-(4-methoxy-benzyl)-amine], the half-inhibitory concentration (IC50) amounted to 97.1 nM in the test on PDE4 enzyme and 9.85 nM in test [1].

With `CCOc1cc(N(Cc2ccc(OC)cc2)Cc2c(Cl)cncc2Cl)ccc1OC` [Compound C14, (3,5-Dichloro-pyridin-4-ylmethyl)-(3-ethoxy-4-methoxy-phenyl)-(4-methoxy-benzyl)-amine], the IC50 with PDE4 enzyme is 27 nM; in test [1], 117 nM.
